{"source": "patent US9408926B2", "about": "“KDR and VEGF/KDR binding peptides and their use in diagnosis and therapy” (Bracco Suisse S.A., priority 2002, dated 2016)", "key": {"[1]": {"test_system": "VEGF-induced migration of HUVECs", "test": "VEGF-induced HUVEC migration assay", "format": "cell-based, human", "procedure": "After 22 hours, quantitation of cell migration/invasion was achieved by post-labeling cells in the insert plates with a fluorescent dye and measuring the fluorescence of the invading/migrating cells in a fluorescent plate reader. The VEGF-induced migration was calculated by subtracting the migration that occurred when only basal medium was placed in the lower chamber of the wells.\n(§1) Serum-starved HUVECs were placed, 100,000 cells per well, into the upper chambers of BD fibronectin-coated FluoroBlok 24-well insert plates. […] After 22 hours, quantitation of cell migration/invasion was achieved by post-labeling cells in the insert plates with a fluorescent dye and measuring the fluorescence of the invading/migrating cells in a fluorescent plate reader. The VEGF-induced migration was calculated for each experimental condition by subtracting the amount of migration that occurred when only basal medium was added to the lower chamber of the wells.\nas §1, with “reader.” for “reader. The”, “observed in” for “that occurred when only basal medium was added to”, “absence” for “lower chamber”, “VEGF.” for “the wells.”\nas §1, with “VEGF-stimulated” for “The VEGF-induced”, “derived” for “calculated for each experimental condition”, “basal migration measured in the absence” for “amount”, “VEGF.” for “migration that occurred when only basal medium was added to the lower chamber of the wells.”\nSerum-starved HUVECs were placed, 100,000 cells per well, into the upper chambers of BD fibronectin-coated FluoroBlok 24-well insert plates. […] After 22 hours, quantitation of cell migration/invasion was achieved by post-labeling cells in the insert plates with a fluorescent dye and measuring the fluorescence of the invading/migrating cells in a fluorescent plate reader."}, "[2]": {"biological_target": "T1, murine KDR-Fc (Mus musculus, UniProt P35918)", "T1 construct": "purchased R & D Systems (Minneapolis, Minn.) 443-KD-050", "T1 sequence (P35918 with tags, fused parts or gaps limits assumed)": "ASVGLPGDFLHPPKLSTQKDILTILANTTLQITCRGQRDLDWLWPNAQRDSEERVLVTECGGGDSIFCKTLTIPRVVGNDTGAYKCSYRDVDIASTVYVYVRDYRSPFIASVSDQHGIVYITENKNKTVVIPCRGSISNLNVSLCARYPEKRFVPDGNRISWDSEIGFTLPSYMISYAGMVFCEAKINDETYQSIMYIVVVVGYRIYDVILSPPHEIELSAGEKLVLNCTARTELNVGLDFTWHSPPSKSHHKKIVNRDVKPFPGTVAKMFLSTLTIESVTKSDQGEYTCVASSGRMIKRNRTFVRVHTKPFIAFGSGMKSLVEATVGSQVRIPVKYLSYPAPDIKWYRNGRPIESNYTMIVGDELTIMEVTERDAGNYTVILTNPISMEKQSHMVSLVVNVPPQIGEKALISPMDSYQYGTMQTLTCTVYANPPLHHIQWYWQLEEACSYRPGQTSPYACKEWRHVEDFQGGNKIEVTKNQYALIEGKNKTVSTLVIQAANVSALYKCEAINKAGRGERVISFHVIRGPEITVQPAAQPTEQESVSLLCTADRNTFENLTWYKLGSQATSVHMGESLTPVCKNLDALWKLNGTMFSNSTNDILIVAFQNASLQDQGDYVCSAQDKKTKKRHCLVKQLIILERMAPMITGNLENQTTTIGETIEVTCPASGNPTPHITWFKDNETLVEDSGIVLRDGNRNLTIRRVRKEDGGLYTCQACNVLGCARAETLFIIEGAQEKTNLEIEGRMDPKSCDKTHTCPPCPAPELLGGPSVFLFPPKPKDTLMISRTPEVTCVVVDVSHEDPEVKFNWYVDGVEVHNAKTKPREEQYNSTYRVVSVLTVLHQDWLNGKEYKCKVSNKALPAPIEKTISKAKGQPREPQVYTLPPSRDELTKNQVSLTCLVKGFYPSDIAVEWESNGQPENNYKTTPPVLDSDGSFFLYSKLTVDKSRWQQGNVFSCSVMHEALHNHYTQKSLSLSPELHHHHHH", "test": "BIAcore kinetic analysis of binding to murine KDR-Fc", "procedure": "Three densities of recombinant murine KDR-Fc were cross-linked to the dextran surface of a CM5 sensor chip by the standard amine coupling procedure (0.5 mg/mL solution diluted 1:100 or 1:40 with 50 mM acetate, pH 6.0). Flow cell 1 was activated and then blocked to serve as a reference subtraction.\nAll samples were injected in duplicate. For association, peptides were injected at 30 μL/min for 3 minutes using the kinject program. Following a 10 minute dissociation, any remaining peptide was stripped from the rmKDR-Fc surface with a quickinject of 50 mM NaOH+1 M NaCl for 12 s at 75 μL/min.\nSensorgrams were analyzed using the simultaneous ka/kd fitting program in the BIAevaluation software 3.1."}, "[3]": {"biological_target": "T2, KDR (Homo sapiens, UniProt P35968)", "test": "SPR analysis of dimer affinity for KDR", "format": "binding"}, "[4]": {"biological_target": "T2, KDR", "test": "Inhibition of VEGF-induced KDR receptor activation (phosphorylation) in HUVECs", "format": "cell-based", "set-up": "host or cells: HUVEC", "method": "In some cases, a neutralizing anti-KDR antibody (Catalog #AF357, R&D Systems) was used as a positive control inhibitor of activation. In such cases, the antibody was pre-incubated with the test cells for 30 min at 37° C. prior to the addition of fresh medium containing both VEGF and the antibody. After incubating the dishes 5 min. in a 37° C. tissue culture incubator they were washed three times with ice-cold D-PBS containing calcium and magnesium and placed on ice without removing the last 10 mL of Delbecco's phosphate buffered saline (D-PBS). […] Another 0.5 mL of lysis buffer was used to rinse out the first dish then transferred to the second dish, which was then also scraped and dispersed. The pooled lysate from the two dishes was transferred to a 1.5 mL Eppindorf tube. The above procedure was repeated for each of the controls and test samples (KDR-binding peptides), one at a time. The lysates were stored on ice until all the samples had been processed. At this point samples were either stored at −70° C. or processed to the end of the assay without interruption.\nThe next day 40 μl of protein A-sepharose beads were added to the tubes that were then incubated 4 C for 1 hr. on a rotator. […] After cooling, the beads in each tube were pelleted by centrifuging and the supernatants containing the immunoprecipitated KDR were transferred to new tubes and used immediately or frozen and stored at −70 C for later analysis.\nDetection of phosphorylated KDR as well as total KDR in the immunoprecipitates was carried out by immunoblot analysis.\nThe blots were first probed with an anti-phosphotyrosine antibody (Transduction Labs, Catalog #P11120), diluted 1:200 in 5% Blotto-TBS with 0.1% Tween 20 added for 2 hr. at room temp. […]\nAfter 5 min of treatment, lysates were prepared from each set of dishes. KDR was immunoprecipitated from the lysates was analyzed sequentially by immunoblotting for phosphorylation with an anti-phosphotyrosine antibody, and for total KDR with an anti-KDR antibody (to control for sample loading)."}, "[5]": {"test_system": "PC3 cell tumors", "conditions": "500 microcuries of Lu-labeled D13 i.v., 18 days", "procedure": "PC3 cells from ATCC, grown as recommended by the supplier, were injected subcutaneously between the shoulder blades of nude mice. When their tumors reached 100-400 mm^3, twelve mice were injected i.v. with 500 microcuries of Lu-labeled D13 and their growth monitored for an additional 18 days. Mice were sacrificed if they lost 20% or more of their body weight or their tumors exceeded 2000 mm^3. Tumor growth in the treated mice was compared with the average tumor growth in 37 untreated nude mice implanted with PC3 tumors."}, "[6]": {"test_system": "VEGF-induced peritoneal vascular permeability", "test": "Blocking VEGF-enhanced peritoneal vascular permeability (Evan's Blue)", "format": "in vivo, mice", "conditions": "20 μM with […] VEGF165 i.p.", "procedure": "Male balb/c nu/nu mice were injected intraperitoneally with 2 mL vehicle (1% bovine serum albumin in 95% saline/5% DMSO), vehicle+1.2 nM VEGF165, or vehicle+1.2 nM VEGF165+20 μM D10. Immediately after, the mice were injected with Evan's Blue Dye (0.5% in saline, 4 mL/kg) i.v. via their tail veins. After 60 min, mice were sacrificed by CO2 asphyxiation and the peritoneal fluid was retrieved. After centrifuging the samples briefly, the absorbance at 590 nm was measured for each."}, "[7]": {"conditions": "vs. 2700RU murine KDR-Fc surface"}, "[8]": {"conditions": "vs. 5000RU murine KDR-Fc surface"}}}
{"substance": "Ac-AGPTWCEDDWYYCWLFGTGGGK (SEQ ID NO:277)[(Biotin-JJK-(O═)C(CH2)3C(═O)-JJ-NH(CH2)4—(S)—CH((Ac-VCWEDSWGGEVCFRYDPGGGK (SEQ ID NO:337))-NH)CONH2]—NH2 [D1]", "values": [{"measurement": "VEGF-stimulated endothelial cell migration blocked", "setting": "[1]; 5 nM", "result": 84, "unit": "%"}, {"measurement": "VEGF-stimulated endothelial cell migration blocked", "setting": "[1]; 25 nM", "result": "almost completely blocked"}, {"measurement": "Inhibition of VEGF-stimulated migration", "setting": "[1]; 50 nM", "result": "completely blocked"}, {"measurement": "Effect on serum-induced migration", "setting": "[1]; serum (5% FBS) used in place of VEGF", "result": "not significantly diminished"}, {"measurement": "Kd1", "setting": "[2]; [7]", "result": 0.0139, "unit": "s⁻¹"}, {"measurement": "ka1", "setting": "[2]; [7]", "result": 794000, "unit": "M⁻¹ s⁻¹"}, {"measurement": "ka2 (1/RUs)", "setting": "[2]; [7]", "result": "3.31E−04 1/RUs"}, {"measurement": "kd2", "setting": "[2]; [7]", "result": 0.000596, "unit": "s⁻¹"}, {"measurement": "Kd1", "setting": "[2]; [8]", "result": 0.00888, "unit": "s⁻¹"}, {"measurement": "ka1", "setting": "[2]; [8]", "result": 554000, "unit": "M⁻¹ s⁻¹"}, {"measurement": "ka2 (1/RUs)", "setting": "[2]; [8]", "result": "1.17E−04 1/RUs"}, {"measurement": "kd2", "setting": "[2]; [8]", "result": 0.000457, "unit": "s⁻¹"}, {"measurement": "Fold higher affinity for KDR than D2 (by SPR analysis)", "setting": "[3]", "result": 10, "unit": "fold"}, {"measurement": "Fold lower IC50 than D2 in the activation assay", "setting": "[4]", "result": "at least 100 fold"}, {"measurement": "Block of VEGF-induced phosphorylation of KDR", "setting": "[4]; 1 nM", "result": "More than half"}, {"measurement": "Block of VEGF-induced phosphorylation of KDR", "setting": "[4]; 10 nM", "result": "completely block"}]}
{"substance": "Ac-AGPTWCEDDWYYCWLFGTGGGK (SEQ ID NO:277){Ac-VCWEDSWGGEVCFRYDPGGGK (SEQ ID NO:337)[JJ-Glut-K(BOA)]—NH2}—NH2 [D13]", "values": [{"measurement": "Treated mice with significant or complete tumor growth delay", "setting": "[5]", "result": "6 of the 12"}]}
{"substance": "Ac-AGPTWCEDDWYYCWLFGTGGGK (SEQ ID NO:277){[Ac-GDSRVCWEDSWGGEVCFRYDPGGGK (SEQ ID NO:294) (JJ-Glut-NH(CH2)4—(S)—CH(PnAO6-Glut-NH) (C═O—)]—NH2}—NH2 [D10]", "values": [{"measurement": "Block of VEGF-increased dye leakage into the peritoneum", "setting": "[6]", "result": "substantially blocked"}]}
